Source: patent US12429423B2, “L-2-hydroxyglutarate biosensor based on specific transcriptional regulator and application thereof” (SHANDONG UNIVERSITY, priority 2020, dated 2025)

Experiments:
[1] = test system: LhgR binding to the lhgO promoter (F1); experiment: Electrophoretic mobility shift assays (EMSAs) to analyze the effectors of LhgR; set-up: species or system Pseudomonas putida W619; details: 50 mM compound, 60 nM purified LhgR, 10 nM F1 fragment, 30° C.
Text: The above transcriptional regulator that specifically responds to L-2-hydroxyglutarate (L-2-HG) was obtained in the following way: • (1) analysis of the distribution of lhgO, the gene encoding a key enzyme for L-2-HG catabolism, in the genomes of different strains. A gene encoding a GntR family transcriptional regulator, lhgR, was found directly upstream of lhgO in the genome of Pseudomonas putida W619. lhgR gene was synthesized and cloned into pETDuet-1 vector, and the recombinant plasmid pETDuet-lhgR was introduced into an expression strain Escherichia coli BL21 (DE3), and then LhgR protein was obtained by induction of expression, isolation, and purification; • (2) electrophoretic mobility shift assays were performed to verify and determine the function of the above transcriptional regulator LhgR in Pseudomonas putida W619. Purified LhgR was incubated with different compounds (L-lysine, 5-aminovalerate, glutarate, D-2-HG, 2-ketoglutarate, and succinate), respectively, then the promoter fragment of lhgO was added. The effect on the binding ability of LhgR to the lhgO promoter fragment in the presence of different compounds was analyzed by electrophoretic separation, staining, and imaging.
Using the recombinant plasmid pETDuet-F2-lhgR-F1-lhgO as a template, the promoter region of lhgO (F1) was amplified by PCR using the synthetic primers. The F1 fragment and purified LhgR protein were diluted to 100 nM and 2000 nM using EMSA binding buffer, respectively. 18 μL of EMSA binding buffer containing 60 nM purified LhgR protein and 50 mM of different compounds was incubated for 15 min at 30° C., then 2 μL of F1 fragment at a final concentration of 10 nM was added and incubated for another 30 min at 30° C. 10 μL of the reaction mixture was electrophoresed on a 6% native polyacrylamide gels at 4° C. and 170 volts for approximately 45 minutes, followed by staining with SYBR green I and photographing.
The EMSA binding buffer formulation described in step (2) above was: 10 mM Tris-HCl, 50 mM KCl, 0.5 mM EDTA, 10% glycerol, and 1 mM dithiothreitol, adjusted to pH 7.4. The electrophoresis buffer formulation was: 89 mM Tris, 89 mM boric acid, 2 mM EDTA, adjusted to pH 8.3.

HEK293FT cells = experiment: Detection of intracellular L-2-HG concentration in human cells; format: cell-based; details: HEK293FT cells expressing the biosensor, permeabilized with 10 μM digitonin, L-2-HG added
Protocol: The above application was performed by optimizing and synthesizing the nucleotide sequences of LHGFR0N3C and LHGFR0N7C with mammalian codons, adding the kozark sequence, 5′-GCCACC-3′, before the start codon, and ligating it to the pcDNA3.1^(+) plasmid, then the obtained recombinant plasmids pcDNA3.1-LHGFR0N3C and pcDNA3.1-LHGFR0N7C were transfected into HEK293FT cells, respectively. Cells were trypsinized 48 h following transfection, and resuspended in 1× Hank's balanced salt solution supplemented with 20 mM HEPES. Digitonin at a concentration of 10 μM was used to induce cell permeabilization and deplete intracellular L-2-HG for in vivo response curves construction.
The nucleotide sequences of LHGFR0N3C and LHGFR0N7C were optimized for mammalian codons and synthesized by General Biosystem Co., Ltd (Anhui). […] In a black flat-bottomed 96-well plate, 90 μL of the treated cell suspension was mixed with 10 μL of gradient concentration of L-2-HG and the fluorescence intensity was read in a SpectraMax i3 fluorescence plate reader (Molecular Devices, USA). […] The fluorescence intensity of HEK293FT cells not expressing the L-2-HG biosensor was subtracted at each emission wavelength and the dose-response curve in human cells was plotted as the ratio of the corrected fluorescence intensity at 528 nm to the fluorescence intensity at 485 nm.

E. coli BL21(DE3) = experiment: Real-time detection of intracellular L-2-HG concentration in bacteria; format: cell-based, Escherichia coli; details: carbon starvation-treated E. coli BL21(DE3) expressing the biosensor, L-2-HG added, 37° C., 5 min interval
Protocol: The above application was performed by introducing the L-2-HG biosensor-encoding plasmid pETDuet-LHGFR0N3C into an expression strain E. coli BL21 (DE3), shaking the culture and then adding IPTG overnight to induce LHGFR0N3C expression, carbon starvation treatment in inorganic salt medium without carbon source for 8 h to remove intracellular L-2-HG, mixing 90 μL of carbon starvation-treated bacterial solution with 10 μL of gradient concentration of L-2-HG solution, the fluorescence emission intensity of mTFP and Venus and its ratio were measured continuously at 5-minute intervals by a fluorescence microplate reader, and the fluorescence emission ratio increased in response to the addition of L-2-HG, and there was a positive correlation between the change level of fluorescence emission ratio and the concentration of L-2-HG, which can be used as an indicator to achieve real-time detection of dynamic changes in intracellular L-2-HG concentration of bacteria.
The E. coli BL21(DE3)-pETDuet-LHGFR0N3C strain constructed in Example 3 was inoculated in 50 mL of LB medium containing ampicillin resistance and incubated at 37° C. with 180 rpm to an OD600 nm of approximately 0.6. Then, 1 mM IPTG was added, and LHGFR0N3C expression was induced at 16° C. with 160 rpm overnight. […] The fluorescence intensity was detected continuously by using an EnSight microplate reader (PerkinElmer, USA). […]

Molecule	effect on the binding of LhgR to the lhgO promoter fragment (EMSA) [1]	detection of intracellular L-2-HG (fluorescence emission ratio) (HEK293FT cells)	detection of intracellular L-2-HG dynamics (fluorescence emission ratio) (E. coli BL21(DE3))
O=C(O)CCC(=O)C(=O)O [2-ketoglutarate]	could not interfere with the binding of LhgR to DNA fragments	–	–
NCCCCC(=O)O [5-aminovalerate]	could not interfere with the binding of LhgR to DNA fragments	–	–
O=C(O)CC[C@@H](O)C(=O)O [D-2-HG]	could not interfere with the binding of LhgR to DNA fragments	–	–
O=C(O)CC[C@H](O)C(=O)O [L-2-HG, L-2-Hydroxyglutarate]	inhibited the binding of LhgR to the lhgO promoter fragment	–	–
NCCCC[C@H](N)C(=O)O [L-lysine]	could not interfere with the binding of LhgR to DNA fragments	–	–
O=C(O)CCC(=O)O [succinate]	could not interfere with the binding of LhgR to DNA fragments	–	–
LHGFR0N3C: L-2-HG biosensor: mTFP-LhgR-Venus fusion with C-terminal truncation of three amino acids of LhgR; SEQ ID NO. 3	–	able to detect intracellular L-2-HG concentration in human cells	able to detect dynamic changes in intracellular L-2-HG concentration of bacteria in real time
LHGFR0N7C: L-2-HG biosensor: mTFP-LhgR-Venus fusion with C-terminal truncation of seven amino acids of LhgR; SEQ ID NO. 4	–	able to detect intracellular L-2-HG concentration in human cells	–
